The values that follow come from publication PMC9066185 (RSC Advances, 2019).

In the assay the target is xanthine oxidase from cow's milk (XO) (Bos taurus, UniProt P80457). In words: uric acid formation at […] nm. It is filed as biochemical.
Chain of xanthine oxidase from cow's milk (XO) (P80457 2-1332): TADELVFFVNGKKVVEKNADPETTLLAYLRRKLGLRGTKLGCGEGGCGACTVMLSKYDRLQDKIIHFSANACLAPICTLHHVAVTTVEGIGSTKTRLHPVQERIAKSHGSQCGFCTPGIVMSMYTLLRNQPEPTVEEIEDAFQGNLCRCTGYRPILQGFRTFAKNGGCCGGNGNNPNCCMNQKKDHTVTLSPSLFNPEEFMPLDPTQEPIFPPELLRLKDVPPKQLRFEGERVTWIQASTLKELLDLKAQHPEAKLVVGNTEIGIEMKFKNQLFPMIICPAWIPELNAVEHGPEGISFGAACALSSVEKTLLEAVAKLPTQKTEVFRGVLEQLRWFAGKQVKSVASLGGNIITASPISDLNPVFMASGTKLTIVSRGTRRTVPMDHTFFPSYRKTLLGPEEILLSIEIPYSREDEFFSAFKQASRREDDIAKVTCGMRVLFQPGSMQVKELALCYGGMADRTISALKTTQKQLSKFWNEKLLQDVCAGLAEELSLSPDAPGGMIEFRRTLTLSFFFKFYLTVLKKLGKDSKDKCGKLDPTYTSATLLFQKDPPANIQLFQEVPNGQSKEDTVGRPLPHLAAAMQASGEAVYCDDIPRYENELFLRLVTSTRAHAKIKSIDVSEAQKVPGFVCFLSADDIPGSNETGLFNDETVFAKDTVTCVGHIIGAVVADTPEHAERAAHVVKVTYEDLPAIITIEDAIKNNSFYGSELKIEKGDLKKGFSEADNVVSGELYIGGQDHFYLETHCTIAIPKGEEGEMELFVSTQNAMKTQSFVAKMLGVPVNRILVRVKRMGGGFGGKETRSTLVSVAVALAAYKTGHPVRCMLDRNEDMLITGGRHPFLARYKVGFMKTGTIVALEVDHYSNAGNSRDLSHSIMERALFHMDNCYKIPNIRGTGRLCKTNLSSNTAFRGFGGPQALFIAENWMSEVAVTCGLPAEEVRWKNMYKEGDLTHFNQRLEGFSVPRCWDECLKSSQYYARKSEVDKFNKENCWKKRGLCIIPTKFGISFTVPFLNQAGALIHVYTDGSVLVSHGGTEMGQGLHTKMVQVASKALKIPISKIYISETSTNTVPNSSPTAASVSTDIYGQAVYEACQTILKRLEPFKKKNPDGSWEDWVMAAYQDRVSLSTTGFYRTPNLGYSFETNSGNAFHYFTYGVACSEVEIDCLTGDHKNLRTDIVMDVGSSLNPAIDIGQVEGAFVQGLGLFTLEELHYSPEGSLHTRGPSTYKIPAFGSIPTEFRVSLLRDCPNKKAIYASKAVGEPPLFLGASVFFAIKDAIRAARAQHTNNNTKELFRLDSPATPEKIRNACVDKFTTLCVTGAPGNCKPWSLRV

As usually defined, the IC50 is the concentration at which inhibition is half-maximal. Higher therefore signals lower potency. On to `Oc1cc(O)c2c(c1)O[C@H](c1ccc(O)c(O)c1)[C@H](O)[C@H]2c1c(O)cc(O)c2c1O[C@H](c1ccc(O)c(O)c1)[C@@H](O)C2` [procyanidin B1, (−)-epicatechin-(4β,8)-(+)-catechin], for which the IC50 was 92.5 µM.
